Results published in US20240174681A1, “SALT AND CRYSTALLINE FORMS OF FGFR4 INHIBITOR AND USES THEREOF” (BETTA PHARMACEUTICALS CO., LTD, priority 2020, published 2024).
“Also recorded” adds a separate entry of the source. Where two headings read alike, the source gives them in different places.

Experiments:
[1] = Stability determination of crystal forms (HPLC); assay type: physicochemical; conditions: for stability (in words): HPLC detection results
Experimental: Samples and experimental preparation: The amorphous form of the compound represented by Formula I and the crystal form A, maleate crystal form 1, maleate crystal form 2, phosphate crystal form 1 and adipate crystal form 1 of the compound represented by Formula I in appropriate amounts were tested for stability. Samples were taken at different time points separately for HPLC. The packages were polyester/aluminum/polyamide/polyethylene pharmaceutical composite films and bags.

[2] = Hygroscopicity determination by dynamic vapor sorption (DVS); assay type: physicochemical; conditions: for Weight Gain for Vapor Absorption: DVS, 0% RH to 80% RH; for hygroscopicity (in words): under the test conditions
Experimental: The hygroscopicity of samples (which are multiple crystal forms shown in Table 14) was determined by a dynamic vapor sorption (DVS) meter. The samples were detected for changes of weight gains due to vapor absorption within the range of 0% RH (relative humidity) to 80% RH.

[3] = test system: human liver cancer cells Hep3B; assay: Cell proliferation assay (CellTiter-Glo); assay type: cell-based; conditions: 96 hrs incubation, CTG, read-out: IC50 of the Compound on Hep3B Cells
Experimental: The effect of the compound of the present disclosure on the proliferation of human liver cancer cells Hep3B cells was evaluated by an in vitro cell assay. CELL TITER-GLO (CTG) luminescence was used as a detection method in the assay, which can detect the number of living cells by quantitatively determining ATP. Since ATP participates in a variety of enzymatic reactions in organisms, the ATP is an indicator of the metabolism of living cells and its content directly reflects the number of cells and the cell state of cells. In the assay, CellTiter-Glo™ reagent was added to a cell culture medium to measure a luminescence value, the luminescence value is directly proportional to the amount of ATP, and ATP is positively correlated to the number of living cells, so cell viability can be inspected by detecting the ATP content.
A bottle of Hep3B cells in a logarithmic growth phase was taken, the cells were counted after digestion and resuspension and then inoculated into a 96-well plate after the cell density was adjusted, each well inoculated with 180 μL (1500 cells/well), and the plate was incubated for 24 hrs in a 37° C., 5% CO2 incubator. • (2) Administration to cells […]
An inhibition rate was calculated according to the luminescence value. […]

[4] = test system: human liver cancer cells Hep3B xenograft; assay: Hep3B xenograft tumor model; assay type: in vivo
Experimental: BALB/c nu/nu female mice were inoculated with 5×10^6 human liver cancer cells Hep3B subcutaneously in the right anterior scapula, where a volume ratio of a cell suspension to matrigel was 1:1 (0.2/mL/mouse). When an average tumor volume was 158 mm^3, the mice were randomly grouped according to a tumor size. The treatment group was administered with a solution of a to-be-tested compound prepared with an appropriate solvent, and the solvent control group was administered with a blank solvent. During treatment, the tumor volume was measured twice a week, and the tumor weight was determined after a last dose to determine the activity of the compound. A tumor growth inhibition (TGI) rate (%) was calculated by comparing the tumor volumes and weights of the treatment group and the solvent control group. Body weight measurement, as the routine determination of toxicity, has the same frequency as tumor volume measurement.

[5] = Pharmacokinetic test of crystal forms in SD rats, oral; assay type: in vivo; conditions: 50 mg/kg, suspension in 0.5% CMC-Na
Experimental: Drug preparation: A maleate crystal form 1, a phosphate crystal form 1 and an adipate crystal form 1 were weighed separately, and each crystal form was prepared in a 0.5% CMC-Na solution into a to-be-tested suspension, where the final concentration of each compound was 5 mg/mL.
Test animals: SD rats were randomly divided into three groups, each group including three male rats, and the three groups were called a maleate group, a phosphate group and an adipate group, separately.
Administration and sample collection: The SD rats in each group were subjected to oral administration at a dosage of 50 mg/kg. Blood collection time: Blood samples were collected in EDTA-K pre-anticoagulation tubes after 0 h (before administration), 0.25 h, 0.5 h, 1 h, 2 hrs, 4 hrs, 7 hrs and 24 hrs. The plasma in each sample was isolated by being centrifuged at 4000 rpm for 10 min at 4° C. Plasma samples were collected and stored at −80° C. for analytical use. The concentration of a to-be-tested compound in plasma samples was analyzed by AB4000 API LC/MS in combination with HPLC, and the pharmacokinetic parameter of the to-be-tested compound was obtained by analyzing the plasma concentration-time data of each animal.

[6] = 40° C./75% RH, packaged, day 5, listed as Crystal form A of the compound represented by Formula I
[7] = 40° C./75% RH, packaged, day 20
[8] = day 0, listed as Crystal form A of the compound represented by Formula I
[9] = 40° C./75% RH, packaged, day 12

C=CC(=O)N[C@H]1CCOC[C@H]1Nc1ncc2c(n1)-c1cc(C)cnc1N(c1c(Cl)c(OC)cc(OC)c1Cl)C2 [Amorphous form of the compound represented by Formula I]
API Content ([1]; 25° C./75% RH, open, day 10): 97.21%
Changed Maximum Single Impurity ([1]; 25° C./75% RH, open, day 10): 1.26%
API Content ([1]; 40° C., open, day 10): 97.45%
Changed Maximum Single Impurity ([1]; 40° C., open, day 10): 1.15%
stability (in words) [1]: poor stability
API Content ([1]; day 0): 98.30%
Changed Maximum Single Impurity ([1]; day 0): 0.41%
Weight Gain for Vapor Absorption [2]: 6.53%
hygroscopicity (in words) [2]: hygroscopic

C=CC(=O)N[C@H]1CCOC[C@H]1Nc1ncc2c(n1)-c1cc(C)cnc1N(c1c(Cl)c(OC)cc(OC)c1Cl)C2 [Compound represented by Formula I, N-((3S,4S)-3-((6-(2,6-dichloro-3,5-dimethoxyphenyl)-9-methyl-5,6-dihydropyrimido[5,4-c][1,8]naphthyridin-2-yl)amino)tetrahydro-2H-pyran-4-yl)acrylamide]
IC50 [3]: 5.1 nM
inhibition rate on the tumor volume growth of Hep3B ([4]; 50 mg/kg BID×14): 73.02%
inhibition rate on the tumor weight growth of HepB ([4]; 50 mg/kg BID×14): 84.76%
inhibition rate on the tumor volume growth of Hep3B ([4]; 100 mg/kg BID×14): 86.26%
inhibition rate on the tumor weight growth of HepB ([4]; 100 mg/kg BID×14): 92.27%
inhibition rate on the tumor volume growth of Hep3B ([4]; 200 mg/kg BID×14): 90.26%
inhibition rate on the tumor weight growth of HepB ([4]; 200 mg/kg BID×14): 98.15%
body weight loss (routine determination of toxicity) ([4]; during the entire assay, treatment doses 50-200 mg/kg BID×14): none of the animals administered with the compound represented by Formula I showed an obvious weight loss

C=CC(=O)N[C@H]1CCOC[C@H]1Nc1ncc2c(n1)-c1cc(C)cnc1N(c1c(Cl)c(OC)cc(OC)c1Cl)C2 [Crystal form A]
API Content ([1]; 25° C./92.5% RH, open, day 20): 99.32%
Changed Maximum Single Impurity ([1]; 25° C./92.5% RH, open, day 20): 0.17%
API Content [1, 6]: 99.25%
Changed Maximum Single Impurity [1, 6]: 0.19%
API Content [1, 7]: 99.47%
Changed Maximum Single Impurity [1, 7]: 0.17%
API Content ([1]; 60° C., open, day 12): 99.14%
Changed Maximum Single Impurity ([1]; 60° C., open, day 12): 0.24%
stability (in words) [1]: relatively good stability
API Content [1, 8]: 99.16%
Changed Maximum Single Impurity [1, 8]: 0.19%
Weight Gain for Vapor Absorption [2]: 0.03%
hygroscopicity (in words) [2]: non-hygroscopic; also recorded: low hygroscopicity

C=CC(=O)NC1CCOCC1Nc1ncc2c(n1)-c1cc(C)cnc1N(c1c(Cl)c(OC)cc(OC)c1Cl)C2.O=C(O)C(O)C(O)C(=O)O [L-tartrate crystal form 1]
Weight Gain for Vapor Absorption [2]: 0.07%
hygroscopicity (in words) [2]: non-hygroscopic

C=CC(=O)NC1CCOCC1Nc1ncc2c(n1)-c1cc(C)cnc1N(c1c(Cl)c(OC)cc(OC)c1Cl)C2.O=C(O)C=CC(=O)O (centres unmarked) [Maleate crystal form 1]
AUClast [5]: 8355 ng·h/mL
Cmax [5]: 2713 ng/mL
API Content ([1]; 40° C./75% RH, packaged, day 5): 99.48%
Changed Maximum Single Impurity ([1]; 40° C./75% RH, packaged, day 5): 0.26%
API Content [1, 9]: 99.34%
Changed Maximum Single Impurity [1, 9]: 0.28%
stability (in words) [1]: relatively good stability
API Content ([1]; day 0): 99.62%
Changed Maximum Single Impurity ([1]; day 0): 0.2%
hygroscopicity (in words) [2]: low hygroscopicity

C=CC(=O)NC1CCOCC1Nc1ncc2c(n1)-c1cc(C)cnc1N(c1c(Cl)c(OC)cc(OC)c1Cl)C2.O=C(O)C=CC(=O)O (centres unmarked) [Maleate crystal form 2]
API Content ([1]; 25° C./75% RH, open, day 10): 98.61%
Changed Maximum Single Impurity ([1]; 25° C./75% RH, open, day 10): 1.1%
API Content ([1]; 40° C., open, day 10): 99.32%
Changed Maximum Single Impurity ([1]; 40° C., open, day 10): 0.48%
stability (in words) [1]: poor stability
API Content ([1]; day 0): 99.63%
Changed Maximum Single Impurity ([1]; day 0): 0.29%
Weight Gain for Vapor Absorption [2]: 6.64%
hygroscopicity (in words) [2]: hygroscopic

C=CC(=O)N[C@H]1CCOC[C@H]1Nc1ncc2c(n1)-c1cc(C)cnc1N(c1c(Cl)c(OC)cc(OC)c1Cl)C2 [Phosphate crystal form 1]
AUC(0-t) ([5]; male, rat, plasma): 6890 ng·h/mL
Cmax ([5]; male, rat, plasma, read-out: Cmax): 1140 ng/mL
API Content ([1]; 40° C./75% RH, packaged, day 5): 99.39%
Changed Maximum Single Impurity ([1]; 40° C./75% RH, packaged, day 5): 0.15%
API Content [1, 9]: 99.56%
Changed Maximum Single Impurity [1, 9]: 0.11%
stability (in words) [1]: relatively good stability
API Content ([1]; day 0): 99.32%
Changed Maximum Single Impurity ([1]; day 0): 0.15%
Weight Gain for Vapor Absorption [2]: 0.19%
hygroscopicity (in words) [2]: non-hygroscopic; also recorded: low hygroscopicity
